Measurements published in patent US10080739B2, “Aryl imidazoles and their use as anti-cancer agents” (Aptose Biosciences Inc., priority 2003, dated 2018).
Values belong to the compound of their own block, whether it stands above or below them.

Columns and labels:
[1] = NCI/DTP data; cited from earlier work
[2] = tested on: human colon carcinoma cells (HT-29); assay: XTT cell proliferation assay, HT-29 cells, 48 h; type: cell-based; settings: read-out: % Survival
Experimental: (§1) Selected compounds of Formula I were tested for anti-cancer activity in vitro using a human colon carcinoma cells (HT-29) and human non-small cell lung cancer cells (H460). The cells were maintained in α-MEM medium (Wisent, St-Bruno, Qc) supplemented with 10% FBS, and grown at 37° C. in an atmosphere of 5% CO2. Cells were transferred onto 150 mm tissue culture plates and grown until sub-confluency (70-80%) prior to their use.
(§2) The anti-cancer activity in vitro was evaluated by a cell proliferation assay based on the ability of live cells to reduce the tetrazolium salt XTT to orange coloured compounds of formazan (XTT cell proliferation kit II, Roche Applied Science, Montreal, QC).
(§3) Approximately 4×10^3 colon cancer cells (HT-29) or 2×10^3 non-small cell lung cancer cells (NCI-H460) in 100 μl of complete culture medium were plated onto 96-well microtiter plates and incubated overnight at 37° C. The medium was then removed by inverting the plate and patting on a sterile absorbent cloth. Fifty μl of medium containing the test compound at either 25 or 100 μM, were added to the wells containing cells and incubated at 37° C. in an atmosphere of 5% CO2 for 48 h. Following incubation, 25 μl of an XTT reaction mixture (XTT at a final concentration of 0.3 mg/ml) were added to each well and the plates were incubated for a further 4 h. The absorbance of each sample was then determined at a wavelength of 490 nm/650 nm as reference. Each compound was tested in duplicate and the results are reported as averages.

[3] = tested on: human non-small cell lung cancer cells (H460); assay: XTT cell proliferation assay, H460 cells, 48 h; type: cell-based; settings: NCI-H460 cells, 48 h, XTT, read-out: % Survival
Experimental: as §1, §2, §3

[4] = tested on: Saccharmyces cerevisiae strains that have mutations in genes related to cell cycle control and DNA repair damage; settings: panel of six yeast strains, single concentration; NCI/DTP data; cited from earlier work
[5] = tested on: panel of 60 human cancer cell lines; assay: NCI/DTP in vitro anticancer screen, 60 cell lines; type: cell-based; settings: NCI panel of 60 human cancer cell lines, value per compound (FIG. 10A)
Experimental: The twenty-three compounds of Formula I shown below were evaluated for their antiproliferative effects in a panel of 60 human cancer cell lines as part of the in vitro anticancer screening services provided by the DTP (Developmental Therapeutics Program) of the US National Cancer Institute (NCI) U.S. National Cancer Institute (NCI) of the National Institutes of Health (NIH) in […], Md.
The NCI conducts a standard 48/72 hour 60 cell line assay and an in vitro time course assay as described in Alley et al. (Cancer Res (1988) 48:589). In the standard 60 cell line assay, a minimum of 5 concentrations of the test compound are tested at 10-fold dilutions against 60 cell lines and cell growth is assayed at 48 and 72 hours using a sulphorhodamine B assay. For the time course analysis, tumour cells are treated with the test compound at various time points, then washed and grown in medium free of the test compound until the end of the experiment at 144 hrs. This assay employs 20% FBS to better approximate the minimum c×t (concentrations and times) test compound exposure conditions that are required to achieve activity in vivo. Cell growth is quantified by an MTT assay (similar to the XTT assay described above) and the concentration of the test compound required for growth inhibition is determined. […]

[6] = tested on: HT29 colon adenocarcinoma cells; assay: morphological changes (vacuoles), HT29; type: cell-based, human; settings: treatment for 24 hours
From the text: These vacuoles are not formed in DMSO- or doxorubicin-treated cells. Moreover, the nuclear membrane is no longer evident in the phase-contrast images of cells treated with compound 45, even though the nucleus is still intact, as shown by DAPI staining.

SMILES: c1ccc2c(-c3nc4ccccc4[nH]3)cccc2c1 [Compound 144033]
activity in the In Vivo Anticancer Drug Screen [1]: None of these three compounds showed any activity

SMILES: Cc1ccccc1-c1nc2c3ccccc3c3ccccc3c2[nH]1 [NCI #338970]
activity in Stage0 testing in the Yeast Anticancer Drug Screen [4]: active
activity in the In Vivo Anticancer Drug Screen [1]: None of these three compounds showed any activity

SMILES: Cc1[nH]c2ccccc2c1-c1nc2c3cccnc3c3ncccc3c2[nH]1 [Compound 90]
GI50 (growth inhibition by 50%) [5]: most effective compound

SMILES: COc1cccc2c1C(=O)c1c(O)c3c(c(O)c1C2=O)C[C@@](O)(C(=O)CO)C[C@@H]3O[C@H]1C[C@H](N)[C@H](O)[C@H](C)O1 [doxorubicin, reference compound]
formation of vacuoles [6]: not formed

SMILES: CN(C)c1ccc(-c2nc3c4ccccc4c4ccccc4c3[nH]2)cc1 [NCI #322334]
activity in the In Vivo Anticancer Drug Screen [1]: None of these three compounds showed any activity

The next lines start with results.

melting point: 165 to 167 °C
SMILES: Cc1[nH]c2ccccc2c1-c1nc(-c2ccc(Cl)cc2)c(-c2ccc(Cl)cc2)[nH]1 [Compound 19]
viability at 25 µM ([2]; 25 μM compound): 106%
viability at 100 µM ([2]; 100 μM compound): 37.1%
viability at 25 µM ([3]; 25 μM compound): 89.2%
viability at 100 µM ([3]; 100 μM compound): 27.3%

melting point: 258 to 259 °C
SMILES: COc1ccc(-c2nc(-c3c[nH]c4ccccc34)[nH]c2-c2ccccc2)cc1OC [Compound 152]

melting point: 239 to 240 °C
SMILES: Cc1[nH]c2ccccc2c1-c1nc(-c2cccc3ccccc23)c(-c2ccccc2)[nH]1 [Compound 180]

melting point: 155 to 158 °C
SMILES: Brc1ccc2[nH]cc(-c3nc(-c4ccc(-c5ccccc5)cc4)c(-c4ccc(-c5ccccc5)cc4)[nH]3)c2c1 [Compound 41]

melting point: 335 to 336 °C
SMILES: Cc1[nH]c2ccccc2c1-c1nc2c3ccccc3c3ccc([N+](=O)[O-])cc3c2[nH]1

melting point: 300 to 303 °C
SMILES: Nc1ccc2c3ccccc3c3nc(-c4c[nH]c5ccc(Br)cc45)[nH]c3c2c1

melting point: 240 to 242 °C
SMILES: c1ccc(-c2[nH]c3ccccc3c2-c2nc3c4ccccc4c4ccccc4c3[nH]2)cc1
